The values that follow come from patent US20050228007A1, “Isoquinoline derivatives and methods of use thereof” (priority 2004, published 2005).

For data set [1], the system named is Balb/c mice. As to the kind of experiment: LPS (endotoxin) induced mortality. Particulars: 3 mg/kg/day; 100 mg/kg LPS i.p.; over 24 h; untreated 50%. Type of data set: in vivo.
Data set [2] deals with middle cerebral artery occlusion/reperfusion. As to the kind of experiment: Rat model of middle cerebral artery occlusion/reperfusion. As to conditions: 3 mg/kg/day in 3 divided i.p. doses; 2 h occlusion, 24 h reperfusion; vs vehicle-treated controls. The data set is classed as in vivo. On the procedure:
Occlusion lasted for 2 hours, followed by reperfusion for 24 hours. Infarct size was quantified with tetrazolium staining. […] There was an approximately 80% reduction in the degree of cortical necrosis and neuronal death in the animals administered with 8l (mesylate salt), when compared to vehicle-treated controls.

Data set [3] relates to ischemic and reperfused gut. As to the kind of experiment: Mouse model of ischemic and reperfused gut.
Protocol: In order to substantiate the efficacy of the Isoquinoline Derivatives in ischemia-reperfusion conditions, the effect of an illustrative Isoquinoline Derivative in a mouse model of ischemic and reperfused gut was tested. […] Following the end of the reperfusion, gut permeability was measured with the FD4 method in evened gut sacks (Liaudet et al., Shock 2000, 14(2): 134-41).
Data set [4] deals with CLP induced shock. As to the kind of experiment: Cecal ligation and puncture (CLP) induced shock mortality. As to conditions: 3 mg/kg/day; over 24 h; untreated 100% death. Type of data set: in vivo.
Data set [5] relates to streptozotocin (STZ) induced hyperglycemia. As to the kind of experiment: Single high-dose streptozotocin model of diabetes. Type of data set: in vivo, mice. Particulars: 3 mg/kg i.p.; STZ 160 mg/kg; blood sugar 3 days later; STZ + vehicle 320 ± 13, basal 153 ± 21; 8l as mesylate salt. The procedure:
PARS inhibitors and PARS deficiency are known to reduce the development of diabetes and the incidence of diabetic complications (Mabley et al., Br J. Pharmacol. 2001, 133(6):909-9; and Soriano et al., Nat Med. 2001, 7(1):108-13). […] Briefly, 160 mg/kg streptozotocin was injected to mice treated with vehicle or with illustrative Isoquinoline Derivatives intraperitoneally (3 mg/kg) and 3 days later blood sugar levels were determined using a blood glucose meter.

Data set [6] concerns the target T1, PARS (Mus musculus, UniProt P11103).
T1 construct: endogenous in cells; host or cells: RAW mouse macrophages
As to the kind of experiment: PARS activation in peroxynitrite-treated cultured macrophages (whole-cell 3H-NAD+ assay). Type of data set: cell-based. Particulars: cultured murine macrophages. On the procedure:
Raw mouse macrophages were cultured in DMEM medium with high glucose and supplemented with 10% fetal bovine serum. Cells were used at 80% confluence in 12-well plates. Cells were pretreated with various concentrations (100 nM -1 µM) of an Isoquinoline Derivative for 10 min. Peroxynitrite, a prototypical oxidant which induces DNA single strand breakage, was used to induce PARS activation. Peroxynitrite was diluted in phosphate buffered saline (PBS) (pH 11.0) and added to the cells in a bolus of 50 μl. Cells were then incubated for 20 min. […] After the 20 min incubation, the cells were spun, the medium was aspirated and the cells were resuspended in 0.5 ml assay buffer (56 mM HEPES pH 7.5, 28 mM KCl, 28 mM NaCl, 2 mM MgCl2, 0.01% w/v digitonin and 0.125 μM NAD^+ and 0.5 μCi/ml ^3H-NAD^+). Following an incubation in assay buffer, (10 min at 37° C.), PARS activity was measured as follows: 200 μl ice cold 50% w/v TCA was added and the samples were incubated for 4 hours at 4° C. Samples were then spun (10 min @ 10,000 g) and pellets washed twice with ice cold 5% w/v TCA and solubilized overnight in 250 μl 2% w/v SDS/0.1 N NaOH at 37° C. The contents of the tubes were added to 6.5 ml ScintiSafe Plus scintillation liquid (Fisher Scientific) and radioactivity was determined using a liquid scintillation counter (Wallac, Gaithersburg, Md.).

In data set [7] the test system is TNF-alpha. As to the kind of experiment: LPS induced TNF production in mice. Type of data set: in vivo. Further details: unit not given here. As to conditions: LPS 10 mg/kg i.p., plasma at 90 minutes, vehicle 6994.0 ± 904.4, 8l as mesylate salt.
In data set [8] the test system is thymocytes. Particulars: peroxynitrite induced, control 98%.
Description: In addition in vitro studies in isolated thymocytes, cells were exposed to peroxynitrite or hydrogen peroxide (toxic oxidant species) to induce cytotoxicity.

Where a name gives a salt, the structure may show the parent alone. Read-outs that look alike come from different tables or passages of the source.

T1 sequence (P11103 whole entry): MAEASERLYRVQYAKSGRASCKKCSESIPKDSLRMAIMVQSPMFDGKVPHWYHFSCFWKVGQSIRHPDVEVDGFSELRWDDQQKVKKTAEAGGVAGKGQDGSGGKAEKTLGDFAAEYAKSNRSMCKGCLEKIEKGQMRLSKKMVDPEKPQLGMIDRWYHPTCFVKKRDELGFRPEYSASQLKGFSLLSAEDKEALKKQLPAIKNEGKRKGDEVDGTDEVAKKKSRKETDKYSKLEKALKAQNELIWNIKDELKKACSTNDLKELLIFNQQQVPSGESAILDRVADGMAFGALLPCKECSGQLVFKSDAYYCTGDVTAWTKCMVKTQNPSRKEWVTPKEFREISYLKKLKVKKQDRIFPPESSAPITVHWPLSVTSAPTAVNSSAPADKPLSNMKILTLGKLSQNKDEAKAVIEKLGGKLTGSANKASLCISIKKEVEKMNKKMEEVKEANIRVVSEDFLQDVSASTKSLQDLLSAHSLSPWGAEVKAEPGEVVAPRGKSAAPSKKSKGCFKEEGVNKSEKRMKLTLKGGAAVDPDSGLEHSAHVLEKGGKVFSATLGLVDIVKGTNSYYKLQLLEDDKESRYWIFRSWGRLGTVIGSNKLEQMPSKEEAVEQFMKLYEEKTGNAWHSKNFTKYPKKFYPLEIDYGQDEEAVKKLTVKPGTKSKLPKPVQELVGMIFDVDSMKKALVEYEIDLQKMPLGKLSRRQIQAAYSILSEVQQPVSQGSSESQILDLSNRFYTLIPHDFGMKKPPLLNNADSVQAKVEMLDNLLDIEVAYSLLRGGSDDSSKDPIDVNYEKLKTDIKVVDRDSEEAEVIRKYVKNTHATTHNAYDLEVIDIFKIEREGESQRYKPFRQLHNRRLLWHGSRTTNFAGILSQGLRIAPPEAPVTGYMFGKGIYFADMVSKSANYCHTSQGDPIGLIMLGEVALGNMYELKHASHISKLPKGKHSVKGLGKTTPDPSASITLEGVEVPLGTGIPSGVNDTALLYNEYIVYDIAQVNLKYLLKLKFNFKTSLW

With `O=c1[nH]c2c(c3ccccc13)Cc1cc(S(=O)(=O)NCCCN3CCOCC3)ccc1-2` [Compound 8l (mesylate salt), 9-[N-(3-[morpholino-4-yl]propyl)-aminosulphonyl]-5,6-dihydro-5-oxo-11H-indeno-[1,2c]isoquinoline], in data set [1], the endotoxin-induced mortality is 10%. The “reduction in the degree of cortical necrosis and neuronal death” value in data set [2] was “approximately 80%”. In addition, the “reduction of the increase in the permeability of the gut” value in data set [3] (3 mg/kg i.v. 10 min prior to reperfusion, 45 min occlusion, 1 h reperfusion, FD4 method) is “approximately 73%”. Besides, in data set [3] (gut ischemia-reperfusion, over 12 hours, untreated 80%), the mortality worked out at 15%. Also, the “mortality (death) in CLP induced shock” value in data set [4] is listed as 60%.

`O=c1[nH]c2c(c3ccccc13)Cc1cc(S(=O)(=O)NCCN3CCOCC3)ccc1-2` [Compound 8j, 9-[N-(2-[morpholino-4-yl]ethyl)-aminosulphonyl]-5,6-dihydro-5-oxo-11H-indeno[1,2-c]isoquinoline]: in data set [5], the Glucose is 253 ± 24 mg/dL. For the same compound, in data set [6] (100 nM), the “% PARS inhibition at 100 nM” value is 34%. In addition, in data set [6] (300 nM), the “% PARS inhibition at 300 nM” value worked out at 76%. Further, the figures for the TNF in data set [7] (0.1 mg/kg i.p. pretreatment) and in data set [7] (1.0 mg/kg i.p. pretreatment) were 3831.6 ± 385.2 and 5038.8 ± 377.1, respectively.

As to `CCN(CC)CCN(CCN(CC)CC)S(=O)(=O)c1ccc2c(c1)=Cc1c3c(c(=O)[nH]c1=2)=CC=CC3` [Compound 8p, 9-[N,N-di-(2-[N,N-diethylamino]ethyl)-aminosulphonyl]-5,6-dihydro-5-oxo-1H-indeno-[1,2-c]isoquinoline], the Glucose in data set [5] is 264 ± 24 mg/dL. Besides, in data set [6] (100 nM), at 0.1 µM the inhibition was 27%. The same compound returned an inhibition at 0.3 µM in data set [6] (300 nM) of 45%. Besides, the TNF in data set [7] (0.1 mg/kg i.p. pretreatment) is 4470.0 ± 184.4; in data set [7] (1.0 mg/kg i.p. pretreatment), 5090.8 ± 203.7.

For the compound `O=c1[nH]c2c(c3ccccc13)Cc1cc(S(=O)(=O)NCCCN3CCOCC3)ccc1-2` [Compound 8l, 9-[N-(3-[morpholino-4-yl]propyl)-aminosulphonyl]-5,6-dihydro-5-oxo-11H-indeno-[1,2c]isoquinoline], in data set [5], the Glucose was 244 ± 21 mg/dL. The Cytotoxicity is on record as 74% in data set [8] (30 nM 8l (mesylate salt per title)); 39% in data set [8] (100 nM 8l (mesylate salt per title)); 2% in data set [8] (300 nM 8l (mesylate salt per title)); 0% in data set [8] (1 μM 8l (mesylate salt per title)); 0% in data set [8] (3 μM 8l (mesylate salt per title)).
